Measured values from US6608174B1, “Radiolabeled vasoactive intestinal peptide analogs for diagnosis and radiotherapy” (Dabur Research Foundation, priority 2000, dated 2003).
Read-outs that look alike come from different tables or passages of the source. Square brackets hold non-standard residues; d marks the D form. Ends that are not written are not given here. dPhe(4-Cl) = N[C@H](Cc1ccc(Cl)cc1)C(=O)O; Aib = CC(C)(N)C(=O)O

Key:
[1] = tested on: VIP receptors; experiment: Receptor binding and competition assay with 125I labeled peptide (SEQ ID NO:2) on human tumor cell lines; conditions: for Kd: 4-8° C.
Procedure: In the practice of these methods, the peptide was radioiodinated using the iodogen method. Briefly, 5 μg of the peptide in 10 μl of 50 mM PBS (pH 7.5), an appropriate amount of the radioisotope and 50 μg-100 μg iodogen were incubated at room temperature for 15-30 min with occasional mixing. Radioiodinated peptide was purified from unincorporated radioactive iodine by purification on a Sep Pak C18 cartridge, essentially following the same procedure as described for technetium labeling. Receptor binding and competition assays were performed at 4-8° C. Briefly, 50,000 cells were plated per well of a 24 well plate and allowed to adhere overnight. Before the assay, the cells were washed twice with ice cold binding buffer (25 mM HEPES, 10 mM MgCl2 and 1% BSA in RPMI 1640 medium). The cells were incubated for 2-3 hrs with an appropriate concentration (0.1-10 nM) of the ^125I labeled peptide (SEQ ID NO:2), in the presence and absence of the cold ligand, which is the uniodinated form of the same peptide (1 nM-10 μM). After incubation, the cells were washed thrice with the binding buffer to remove the unbound peptide. The cells were lysed and counts were measured in a Gamma counter. From a comparison of the extent of binding in the presence or absence of the unlabeled peptide (SEQ ID NO:2), the dissociation constant (Kd) (TABLE I) and maximal binding (Bmax) (TABLE II) were calculated for the peptide. […] These characteristics are similar to what has been previously reported for VIP receptors. The following tumor cell lines were assayed using the above described binding competition assay: HT29 (human colorectal adenocarcinoma); PTC (human primary tumor cells adenocarcinoma); KB (human squamous cell carcinoma); 4451 (human squamous cell carcinoma); L132 (human lung carcinoma); A549 (human lung carcinoma); HBL100 (human breast carcinoma) and PA1 (human ovarian carcinoma). Cells were grown in RPMI 1640 supplemented with 10% fetal calf serum, glutamine and antibiotics using standard cell culture techniques (see Animal Cell Culture: A Practical Approach, Freshney, ed, IRL press: Oxford, UK, 1992).

[2] = molecular target: VIP receptors on human tumor cell lines (human); experiment: displacement of 125I labeled VIP on PA1 cells
[3] = molecular target: VIP receptors on human tumor cell lines (human); experiment: displacement of 125I labeled VIP on A549 cells
[4] = molecular target: VIP receptors on human tumor cell lines (human); experiment: displacement of 125I labeled VIP (10-28) fragment on HT29 cells
[5] = molecular target: VIP receptors on human tumor cell lines (human); experiment: displacement of 125I labeled VIP (10-28) fragment on 4451 cells
[6] = molecular target: low affinity (µM range), high surface expression receptor on human tumor cells (VIP receptor) (human); experiment: maximal binding, 125I-SEQ ID NO:2 on KB cells
[7] = molecular target: high affinity (nM range), low surface expression receptor on human tumor cells (VIP receptor) (human); experiment: maximal binding, 125I-SEQ ID NO:2 on KB cells
[8] = molecular target: low affinity (µM range), high surface expression receptor on human tumor cells (VIP receptor) (human); experiment: maximal binding, 125I-SEQ ID NO:2 on HBL 100 cells
[9] = molecular target: high affinity (nM range), low surface expression receptor on human tumor cells (VIP receptor) (human); experiment: maximal binding, 125I-SEQ ID NO:2 on HBL 100 cells
[10] = molecular target: high affinity (nM range), low surface expression receptor on human tumor cells (VIP receptor) (human); experiment: homologous radioligand competition, 125I-SEQ ID NO:2 on HT29 cells
[11] = molecular target: low affinity (µM range), high surface expression receptor on human tumor cells (VIP receptor) (human); experiment: maximal binding, 125I-SEQ ID NO:2 on PA1 cells (printed PAI)
[12] = molecular target: high affinity (nM range), low surface expression receptor on human tumor cells (VIP receptor) (human); experiment: as above
[13] = molecular target: VIP receptors on human tumor cell lines (human); experiment: displacement of 125I labeled VIP on PTC cells
[14] = molecular target: VIP receptors on human tumor cell lines (human); experiment: displacement of 125I labeled VIP on HBL 100 cells

## His-Ser-Asp-Aib-Val-4-Cl-D-Phe-Thr-Asp-Asn-Tyr-Thr-Arg-Leu-Arg-Lys-Gln-Leu-Ala-Val-Lys-Lys-Tyr-Leu-Asn-Ser-Ile-Leu-Asn-NH2 (HSD[Aib]V[dPhe(4-Cl)]TDNYTRLRKQLAVKKYLNSILN-NH2; N-terminus assumed; SMILES CC[C@H](C)[C@H](NC(=O)[C@H](CO)NC(=O)[C@H](CC(N)=O)NC(=O)[C@H](CC(C)C)NC(=O)[C@H](Cc1ccc(O)cc1)NC(=O)[C@H](CCCCN)NC(=O)[C@H](CCCCN)NC(=O)[C@@H](NC(=O)[C@H](C)NC(=O)[C@H](CC(C)C)NC(=O)[C@H](CCC(N)=O)NC(=O)[C@H](CCCCN)NC(=O)[C@H](CCCNC(=N)N)NC(=O)[C@H](CC(C)C)NC(=O)[C@H](CCCNC(=N)N)NC(=O)[C@@H](NC(=O)[C@H](Cc1ccc(O)cc1)NC(=O)[C@H](CC(N)=O)NC(=O)[C@H](CC(=O)O)NC(=O)[C@@H](NC(=O)[C@@H](Cc1ccc(Cl)cc1)NC(=O)[C@@H](NC(=O)C(C)(C)NC(=O)[C@H](CC(=O)O)NC(=O)[C@H](CO)NC(=O)[C@@H](N)Cc1c[nH]cn1)C(C)C)[C@@H](C)O)[C@@H](C)O)C(C)C)C(=O)N[C@@H](CC(C)C)C(=O)N[C@@H](CC(N)=O)C(N)=O) [SEQ ID NO:2, VIP receptor antagonist, preferred peptide (Xxx = Aib)]
[1]; 4451 cells, high affinity receptor
  Bmax1 (maximal binding): 579 pM
[1]; 4451 cells, high affinity receptor, read-out: Kd1
  Kd: 4.48 nM
[1]; 4451 cells, low affinity receptor
  Bmax2 (maximal binding): 51 nM
[1]; 4451 cells, low affinity receptor, read-out: Kd2
  Kd: 1910 nM
[1]; A549 cells, high affinity receptor
  Bmax1 (maximal binding): 540 pM
[1]; A549 cells, high affinity receptor, read-out: Kd1
  Kd: 2.09 nM
[1]; A549 cells, low affinity receptor
  Bmax2 (maximal binding): 48.3 nM
[1]; A549 cells, low affinity receptor, read-out: Kd2
  Kd: 1530 nM
[1]; HBL 100 cells, high affinity receptor
  Bmax1 (maximal binding): 697 pM
[1]; HBL 100 cells, high affinity receptor, read-out: Kd1
  Kd: 2.13 nM
[1]; HBL 100 cells, low affinity receptor
  Bmax2 (maximal binding): 69.1 nM
[1]; HBL 100 cells, low affinity receptor, read-out: Kd2
  Kd: 1600 nM
[1]; HT29 cells, high affinity receptor
  Bmax1 (maximal binding): 367 pM
[1]; HT29 cells, high affinity receptor, read-out: Kd1
  Kd: 3.8 nM
[1]; HT29 cells, low affinity receptor
  Bmax2 (maximal binding): 67.2 nM
[1]; HT29 cells, low affinity receptor, read-out: Kd2
  Kd: 1370 nM
[1]; KB cells, high affinity receptor
  Bmax1 (maximal binding): 602 pM
[1]; KB cells, high affinity receptor, read-out: Kd1
  Kd: 4.2 nM
[1]; KB cells, low affinity receptor
  Bmax2 (maximal binding): 42.9 nM
[1]; KB cells, low affinity receptor, read-out: Kd2
  Kd: 1840 nM
[1]; L132 cells, high affinity receptor
  Bmax1 (maximal binding): 306 pM
[1]; L132 cells, high affinity receptor, read-out: Kd1
  Kd: 2.6 nM
[1]; L132 cells, low affinity receptor
  Bmax2 (maximal binding): 45.8 nM
[1]; L132 cells, low affinity receptor, read-out: Kd2
  Kd: 1030 nM
[1]; PA1 cells, high affinity receptor, read-out: Kd1
  Kd: 5.6 nM
[1]; PA1 cells, low affinity receptor, read-out: Kd2
  Kd: 1890 nM
[1]; PAI cells, high affinity receptor
  Bmax1 (maximal binding): 529 pM
[1]; PAI cells, low affinity receptor
  Bmax2 (maximal binding): 47.7 nM
[1]; PTC cells, high affinity receptor
  Bmax1 (maximal binding): 830 pM
[1]; PTC cells, high affinity receptor, read-out: Kd1
  Kd: 1.77 nM
[1]; PTC cells, low affinity receptor
  Bmax2 (maximal binding): 96.6 nM
[1]; PTC cells, low affinity receptor, read-out: Kd2
  Kd: 1180 nM
[1]; one high affinity (nM range), low expression, one low affinity, high expression
  kinds of receptors bound on the cell surface: bound to two kinds of receptors on the cell surface

B1: VIP analog His-Ser-Asp-Aib-Val-4-Cl-D-Phe-Thr-Asp-Asn-Tyr-Thr-Arg-Leu-Arg-Lys-Gln-Leu-Ala-Val-Lys-Lys-Tyr-Leu-Asn-Ser-Ile-Leu-Asn-NH2 (SEQ ID NO: 2) (peptide)
peptide: HSD[Aib]V[dPhe(4-Cl)]TDNYTRLRKQLAVKKYLNSILN-NH2
modifications: also: 125I-labelled form (iodogen) used as tracer
[2]
  IC50: 7.6 nM
[3]
  IC50: 4.3 nM
[4]
  IC50: 0.22 nM
[5]
  IC50: 0.383 nM
[6]
  Bmax2: 42.9 nM
[7]
  Bmax1: 602 pM
[8]
  Bmax2: 69.1 nM
[9]
  Bmax1: 697 pM
[10]
  Kd: 3.8 nM
[11]
  Bmax2: 47.7 nM
[12]
  Bmax1: 529 pM
[13]
  IC50: 2.53 nM
[14]
  IC50: 5.41 nM
